The structures appear in SMILES notation. Where two headings read alike, the source gives them in different places. Some results are limits rather than exact numbers.

The conditions of data set [1]: cited from earlier work.
For data set [2] the following is noted: cited from earlier work. This is another data set of the same source.
For data set [3] the following is noted: administered orally; cited from earlier work.
The conditions of data set [4]: cited from earlier work. The source holds these as a separate data set.
For data set [5] the following is noted: cited from earlier work. This is another data set of the same source.
The next data set relates to Rhesus monkeys. To be noted: cited from earlier work.
For data set [6] the following is noted: in vivo.
Procedure: It is necessary to combine both the oral dose and the pharmacokinetics data to estimate the target flux of ketorolac. For an oral dosage regimen of ketorolac tromethamine, it is recommended that 10 mg be given every 6 hours as needed for short-term management of moderate to severe pain.
For data set [7] the following is noted: cited from earlier work; for Solubilities: saturated.
For data set [8] the following is noted: cited from earlier work. This is another data set of the same source.
For data set [9] the following is noted: oral doses; cited from earlier work.
For data set [10], the system named is patients with coronary heart disease. To be noted: single oral dose of 2 mg; cited from earlier work.
For the next data set, the system named is rats. To be noted: rat, not told; cited from earlier work.
The nature of data set [11]: in vitro skin flux of ketorolac. To be noted: Table 5.
Procedure: Generally, the protocol was as follows.
Human cadaver epidermis was removed carefully from dermatoned full thickness skin after the skin had been heated in deionized water at 60° C. for one to two minutes. The stripped epidermis was placed between two polyethylene plastic sheets and refrigerated at -20° C. until use. Discs of the epidermis having a diameter of 5/8" were punched out with a die and tested for leakage by soaking the epidermis in water, then spreading it flat on a plastic sheet, and pressing the top of the epidermis lightly a few times with a piece of laboratory tissue. Leakage of the epidermis was detected by appearance of wet spots on the tissue.
Epidermis discs proving to be free of leaks were placed on top of a receiver cell of a modified Franz vertical diffusion cell assembly, and a donor cell was placed on top of the receiver cell. A small magnetic stir bar was inserted through the sampling port into the donor cell compartment. The diffusion cell assemblies were clamped together and transferred to a skin permeation room (controlled at 32° C.) The receiver cell compartments were filled with 8.0 ml of isotonic phosphate buffer, pH 7.0. […]
The quantity of ketorolac tromethamine in each sample was assayed by HPLC analytical methods.
The next data set relates to coronary strips. To be noted: vasodilation; cited from earlier work.

Take `O=C(c1ccccc1)c1ccc2n1CC[C@@H]2C(=O)O` [(-)-S isomer]: in data set [1] (A. Guzman et al., 1986), the “analgesic potency relative to (+)-R isomer” value is on record as “many times greater analgesic potency”.
As to `O=C(c1ccccc1)c1ccc2n1CCC2C(=O)O` (centres unmarked) [Ketorolac tromethamine], the Solubilities in [2] (PG (50%), Oleic acid (50%)) is 110 mg/mL. Also, the Solubilities in data set [2] (propylene glycol (PG)) was 200 mg/mL. For the same molecule, the Solubilities in [2] (water) is 725 mg/mL. In [1] (administered orally), the “analgesic potency relative to aspirin” value was “about 180 times”, the “analgesic potency relative to indomethacin” value is recorded as 3-6 times and the “analgesic potency relative to naproxen” value is on record as 25-50 times. In addition, the “anti-inflammatory potency relative to indomethacin or naproxen” value in data set [3] is 2-3 times. In data set [4] (in vivo), the volume of distribution is on record as 7.7 lit/70 kg. In addition, in data set [4] (oral), the oral bioavailability is 80-100%. Further, the shelf-life result in data set [5] (aqueous solutions pH 4-8, 25° C.) was “very long shelf-life”. The “aqueous solubility relative to ketorolac” value in data set [5] was “greater aqueous solubility than ketorolac”. Also, in [5] (decarboxylation, especially in the presence of oxygen), the light sensitivity result is reported as “light sensitive”. Further, the “stability in aqueous solutions” value in data set [5] (pH 4-8) was “extremely stable”. Further, the “estimated in vivo skin flux” value with Rhesus monkeys (rhesus monkey) was “very high”.
Consider `O=C(c1ccccc1)c1ccc2n1CCC2C(=O)O` (centres unmarked) [Ketorolac], for which, in data set [6], the “amount to be delivered during a 24 hour period” value is 12.5 to 19.2 mg. The total clearance in [4] (in vivo) is given as 1750 ml/hr/70 kg. The “plasma concentration at 6 hour” value in data set [4] (oral administration of 10 mg, 6 hour) was 200 to 300 ng/mL. The Cmax result in data set [4] (oral administration of 10 mg) is “about 0.8 μg/ml”. The “time to high Cmax” value in the data set on Rhesus monkeys (percutaneous, solution formulations) is no more than 8 h. Also, the “enhancement of percutaneous absorption by propylene glycol and linoleic acid, or propylene glycol and oleic acid” value in the data set with Rhesus monkeys (solution formulations) is listed as “effective”.
Consider `CCOC(=O)[N-]c1cn(N2CCOCC2)n[o+]1` [Molsidomine, N-5-ethoxycarbonyl-3-morpholinosydnonimine], for which the solubility result is reported as “freely soluble” in data set [7] (CHCl3); “soluble” in data set [7] (dilute HCl, ethanol, ethyl acetate, methanol); “very slightly soluble” in data set [7] (ether, petroleum ether); “soluble” in data set [7] (propylene glycol and a variety of organic solvents); “sparingly soluble” in data set [7] (water, acetone, benzene). In addition, the Solubilities in data set [7] (Glycerin, 25° C.) was 1.80%; in [7] (Glycol salicylate, 25° C.) it was 15.1%; in data set [7] (Isopropyl myristate, 25° C.), 0.09%; in [7] (Octyl.decyl oil, 25° C.), 0.36%; in [7] (Oleic Acid, 25° C.), 1.37%; in [7] (PEG 400, 25° C.), 5.23%. In data set [7] (Propylene glycol, 25° C.), the Solubilities was 6.37%. In addition, in [8] (25° C.), the pKa was 3.34. The t90 in data set [8] (pH 5-7, 20° C.) was 2.6 years. For the same molecule, the bioavailability in data set [9] was 44%. Besides, the “duration of anti-anginal effects” value in data set [10] is 3 to 5 h. Besides, the estimated flux with rats is on record as roughly 399 μg/hr-cm^2.
As to `CC(O)CO` (centres unmarked) [PG, propylene glycol], the “Effect on skin flux (factorial design)” value in data set [11] was determined as 8.72.
`N#CCN(N=O)N1CCOCC1` [SIN-1A]: in the data set on coronary strips, the “dependence of activity on cysteine” value is “active in both the presence and the absence of cysteine”.
Take `O=[N+]([O-])OCC(CO[N+](=O)[O-])O[N+](=O)[O-]` [nitroglycerin]: the “dependence of activity on cysteine” value in the data set on coronary strips was “depends on the presence of cysteine”.

Broadly, the pKa is the pH at which an ionisable group is half protonated. In general, bioavailability refers to the share of a dose that reaches the circulation, judged against a reference dose that is usually intravenous.

Values taken from patent US5962013A, “Monolithic matrix transdermal delivery system for administering molsidomine” (priority 1998, dated 1999).
